Data on four molecules can be found in PMC7433010, “Exploration of multi‐target effects of 3‐benzoyl‐5‐hydroxychromen‐2‐one in Alzheimer’s disease cell and mouse models” (Aging Cell, 2020).

A short description of this data set: MTT cytotoxicity in uninduced ∆K280 TauRD‐DsRed 293 cells. The data set is classed as cell-based. To be noted: human. As for the experimental part: Licochalcone A and five derivative LM compounds were tested (Figure 1a). All six compounds were soluble up to 100 μM in a cell culture medium (Figure S1a). Based on molecular weight (MW), hydrogen bond donors (HBD), hydrogen bond acceptors (HBA), and calculated octanol/water partition coefficient (cLogP), all six compounds meet Lipinski's criteria in predicting oral bioavailability (Lipinski, Lombardo, Dominy, & Feeney, 1997) (Figure S1b). […] To choose the optimal treatment dose used for the best efficacy of the candidate compounds, a specific type of biphasic dose response of a compound called hormesis should take into consideration. Evidence has shown that a wide range of pharmaceutical products display a hermetic dose‐response feature, characterized by a low‐dose stimulation and a high‐dose inhibition (Calabrese et al., 2018; Concetta Scuto et al., 2019; Pilipenko et al., 2019). Therefore, we tested the compounds at a range of doses to find the optimal dose for the best therapeutic effect and the least cytotoxicity. Firstly, MTT assay was performed using uninduced ∆K280 TauRD‐DsRed 293 and retinoic acid‐differentiated SH‐SY5Y cells following treatment with the test compounds (0.1–10 μM) for 3 (for 293 cells) or 7 (for SH‐SY5Ycells) days. […] Congo red is an amyloidogenic dye known to reduce Aβ neurotoxicity (Lorenzo & Yankner, 1994).
Licochalcone A was purchased from Sigma-Aldrich, St. Louis, MO, USA. In-house LM compounds were synthesized and characterized by NMR spectrum as described (Lee et al., 2012, 2015, 2018). Tet-On ∆K280 TauRD-DsRed 293 and SH-SY5Y cells (Chang et al., 2016) were cultured in Dulbecco’s modified Eagles medium (DMEM) (293) or DMEM-F12 (SH-SY5Y) containing 10% fetal bovine serum (Invitrogen, Carlsbad, CA, USA), 5 μg/ml of blasticidin, and 100 μg/ml of hygromycin (InvivoGen, San Diego, CA, USA). Compound cytotoxicity was assessed by colorimetric assay for measuring cell metabolic activity. Briefly, 5 × 10^4 cells were plated (48-well plates), grown for 20 h, and treated with the test compounds ([…]). […], 20 µl of 3-(4,5-dimethylthiazol-2-yl)-2,5-diphenyltetrazolium bromide (MTT, 5 mg/ml in PBS; Sigma-Aldrich) was added to the cells and incubated at 37°C for 3 h. Then 200 µl of lysis buffer (10% Triton X-100, 0.1 N HCl, 18% isopropanol) was added and the absorbance of the insoluble product at OD 570 nm was measured by a microplate reader (FLx800 fluorescence microplate reader, Bio-Tek, Winooski, VT, USA). The half-maximal inhibitory concentration (IC50) was calculated using the interpolation method.
Figure S1. Test compounds. (a) Solubility (in cell culture medium) of test compounds. (b) Molecular weight (MW), hydrogen bond donor (HBD), hydrogen bond acceptor (HBA), calculated octanol-water partition coefficient (cLogP), polar surface area (PSA), and predicted blood-brain barrier (BBB) score of test compounds. (c) Cytotoxicity of test compounds against ∆K280 TauRD-DsRed 293 and SH-SY5Y cells using the MTT assay. Uninduced 293 cells were plated on day 1 and treated with 0.1–10 μM test compounds on day 2. Cell viability was measured on day 5 (n = 3). In addition, uninduced SH-SY5Y cells were seeded with all trans retinoic acid (RA; 10 µM) on day 1 and treated with 0.1–10 μM test compounds on day 2. Cell viability was measured on day 9 (n = 3). To normalize, the relative viability in compound untreated cells was set at 100%. IC50 values are listed.

Where two headings read alike, the source gives them in different places.

On to `COc1ccc(C(=O)/C=C/c2cc(Br)ccc2O)cc1` [LM‐004], for which the IC50 (usually the concentration that gives 50% inhibition) at 3 days was 6.4 µM. In the case of `O=C(c1ccccc1)c1cc2c(O)cccc2oc1=O` [LM‐031, 3‐benzoyl‐5‐hydroxychromen‐2‐one], half-maximal inhibition (IC50 at 3 days) was put at 55.9 µM. For `Nc1c(/N=N/c2ccc(-c3ccc(/N=N/c4cc(S(=O)(=O)O)c5ccccc5c4N)cc3)cc2)cc(S(=O)(=O)O)c2ccccc12` [congo red, reference compound], half-maximal inhibition (IC50 at 3 days) was put at 36.4 µM. On to `C=CC(C)(C)c1cc(/C=C/C(=O)c2ccc(O)cc2)c(OC)cc1O` [licochalcone A, reference compound], for which, where the note is “uninduced Tet-On ∆K280 TauRD-DsRed 293 cells, uninduced 293 cells, 3 days treatment, read-out: IC50 (MTT cytotoxicity)”, the IC50 at 3 days came out at 7 µM.
